According to patent US7015228B2, “4-amino-2-(2-pyridyl)pyrimidines as microbicidal active substances” (Ciba Specialty Chemicals Corporation, priority 2001, dated 2006):
≈ marks a conversion by molar mass, not a printed value.

Legend:
[1] = test system: S. choleraesuis ATCC 10708; assay: Determination of the bactericidal activity (logarithmic reduction in organism count); format: cell-based, Salmonella choleraesuis; conditions: contact for 30 minutes at a substance concentration of 120 μg/mL
Protocol: (§1) Determination of the Bactericidal Activity of Selected Compounds
(§2) Casein-soybean flour-peptone broth for preparation of pre-cultures of test bacteria
(§3) Examples of Test Organisms:
(§4) • Staphylococcus aureus ATCC 6538 • Escherichia coli ATCC 10536 • Salmonella choleraesuis ATCC 10708 Procedure:
(§5) The test substances are dissolved in dimethyl sulfoxide (DMSO) and tested in a concentration of 120 μg/ml.
(§6) Bacteria are incubated overnight in CASO broth and adjusted to an organism count of 1–5×10^5 CFU/ml using 0.85% sodium chloride solution.
(§7) The test substances are pre-pipetted into microtitre plates in amounts of 8 μl per well.
(§8) The adjusted test organism suspensions are added in amounts of 192 μl per well to the test substances and mixed. After defined contact times, the test batches are mixed, an aliquot is withdrawn and diluted in several steps in a dilution series of 1:10 in a suitable inactivation medium.
The test plates are incubated for 24 hours at 37° C. […]
(§9) One microtitre plate is used for each test organism.
(§10) All the substances are tested in duplicate.

S. aureus ATCC 6538 = assay: as above; format: cell-based, Staphylococcus aureus; conditions: contact for 30 minutes at a substance concentration of 120 μg/mL
Protocol: as §1, §2, §3, §4, §5, §6, §7, §8
The test plates are incubated for 24 hours at 37° C.
After incubation, the growth is determined on the basis of the turbidity of the test batches (optical density) at 620 nm in a microplate reader.
as §9, §10

E. coli NCTC 8196 = assay: as above; format: cell-based, Escherichia coli; conditions: contact for 30 minutes at a substance concentration of 120 μg/mL
[2] = test system: Staphylococcus hominis DMS 20328; assay: Minimum inhibitory concentration (MIC) in microtitre plates; format: cell-based; conditions: Table 7; 48 hours at 37° C.; MIC = ≦20% growth compared to control
In short: (§11)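 Compounds in DMSO, 1:2 dilution series; bacteria at 1–5×10^6 CFU/ml diluted 1:100 in CASO broth. Incubation 48 h at 37° C, growth read as OD 620 nm. MIC is the lowest concentration giving ≤20% growth relative to control; duplicates.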

[3] = test system: Escherichia coli NCTC 8196; assay: as above; format: cell-based
In short: as §11

[4] = test system: Staphylococcus aureus ATCC 9144; assay: Minimum inhibitory concentration (MIC), further microorganisms; format: cell-based; conditions: Table 8; * = significant inhibition of growth, but not complete inhibition
In short: (§12)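 Organisms at 1–5×10^6 CFU/ml were diluted 1:100 into CASO broth (bacteria, yeast) or Sabouraud 2% glucose broth (mould) over 1:2 DMSO dilution series of compound. Bacteria and yeast were incubated 48 h at 37 °C and mould 5 days at 28 °C. MIC is the lowest concentration giving ≤20% growth versus control by OD620, in duplicate.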

[5] = test system: Aspergillus niger ATCC 6275; assay: as above; format: cell-based; conditions: Table 8; * = significant inhibition of growth, but not complete inhibition
In short: as §12

[6] = test system: Enterococcus hirae ATCC 10541; assay: as above; format: cell-based; conditions: Table 8; * = significant inhibition of growth, but not complete inhibition
In short: as §12

[7] = test system: Epidermophyton floccosum DSM 10709; assay: as above; format: cell-based; conditions: Table 8; * = significant inhibition of growth, but not complete inhibition
In short: as §12

[8] = test system: Salmonella choleraesuis ATCC 10708; assay: as above; format: cell-based; conditions: Table 8
In short: as §12

[9] = test system: Candida albicans ATCC 10231; assay: as above; format: cell-based; conditions: Table 8; * = significant inhibition of growth, but not complete inhibition
In short: as §12

[10] = test system: Trichophyton mentagrophytes ATCC 9533; assay: as above; format: cell-based; conditions: Table 8; * = significant inhibition of growth, but not complete inhibition
In short: as §12

[11] = test system: Klebsiella pneumonia ATCC 4352; assay: as above; format: cell-based; conditions: Table 8; * = significant inhibition of growth, but not complete inhibition
In short: as §12

[12] = test system: S. epidermidis ATCC 12228; assay: as above; format: cell-based; conditions: Table 8; * = significant inhibition of growth, but not complete inhibition
In short: as §12

[13] = test system: Micrococcus luteus ATCC 9341; assay: as above; format: cell-based; conditions: Table 8; * = significant inhibition of growth, but not complete inhibition
In short: as §12

[14] = test system: Pseudomonas aeruginosa CIP A-22; assay: as above; format: cell-based; conditions: Table 8
In short: as §12

Structure (SMILES) | Logarithmic reduction in organism count, S. choleraesuis ATCC 10708 [1] | Logarithmic reduction in organism count, S. aureus ATCC 6538 (S. aureus ATCC 6538) | Logarithmic reduction in organism count, E. coli NCTC 8196 (E. coli NCTC 8196) | further results
CCCCCCCNc1nc(-c2ccccn2)nc(C)c1C(C)C [Compound of formula 68] | <1 log | ≦1 log | <1 log | –
CCCCCCCCNc1nc(-c2ccccn2)nc(C)c1C(C)C [Compound of formula 69] | ≦1 log | 1–2 log | <1 log | –
CCCCCCCCCNc1nc(-c2ccccn2)nc(C)c1C(C)C [Compound of formula 70] | <1 log | ≦1 log | ≦1 log | –
CCCCCCCCCCNc1nc(-c2ccccn2)nc(C)c1C(C)C [Compound of formula 71] | <1 log | 2 log | <1 log | –
COCCc1cc(NCCCCCCCCN)nc(-c2ccccn2)n1 [Compound of formula 77] | <1 log | >3 log | <1 log | –
COCCc1cc(NCCCCCCCCCN)nc(-c2ccccn2)n1 [Compound of formula 78] | <1 log | >3 log | ≦1 log | –
CCCCCCCCCCNc1cc(CCOC)nc(-c2ccccn2)n1 [Compound of formula 83] | <1 log | 2 log | ≦1 log | –
CCCCCCCCCCCNc1nc(-c2ccccn2)nc(C)c1CC [Compound of formula 89] | ≦1 log | 2 log | ≦1 log | –
CCCCCCCCCCCCCCCNc1nc(-c2ccccn2)nc(C)c1CC [Compound of formula 90] | <1 log | 2 log | <1 log | –
CCCCCCCCCCCNc1cc(C)nc(-c2ccccn2)n1 [Compound of formula 92] | ≦1 log | >3 log | <1 log | –
CCCCCCCCCCCCCCCNc1cc(C)nc(-c2ccccn2)n1 [Compound of formula 93] | <1 log | 2 log | ≦1 log | –
CCCCCCCCCCCNc1cc(C(C)C)nc(-c2ccccn2)n1 [Compound of formula 98] | 2–3 log | 1 log | 1–2 log | –
CCCCCCCCCCCCCCCNc1cc(C(C)C)nc(-c2ccccn2)n1 [Compound of formula 99] | <1 log | 2 log | ≦1 log | –
CCc1c(C)nc(-c2ccccn2)nc1NCCCCCCCCCCCCN [compound 7] | – | – | – | Minimum inhibitory concentration (MIC) S. hominis [2]: 120 µg/mL (≈ 302 µM); Minimum inhibitory concentration (MIC) E. coli ([3]; Table 7, 48 hours at 37° C., MIC = ≦20% growth compared to control): 120 µg/mL (≈ 302 µM); Minimum inhibitory concentration (MIC) E. coli NCTC 8196 ([3]; Table 8, * = significant inhibition of growth, but not complete inhibition): >60 µg/mL; Minimum inhibitory concentration (MIC) Staphylococcus aureus ATCC 9144 [4]: >60 µg/mL; Minimum inhibitory concentration (MIC) Aspergillus niger ATCC 6275 [5]: >30 µg/mL; Minimum inhibitory concentration (MIC) Enterococcus hirae ATCC 10541 [6]: >60 µg/mL; Minimum inhibitory concentration (MIC) Epidermophyton floccosum DSM 10709 [7]: >30 µg/mL; Minimum inhibitory concentration (MIC) Salmonella choleraesuis ATCC 10708 [8]: >60 µg/mL; Minimum inhibitory concentration (MIC) Candida albicans ATCC 10231 [9]: >60 µg/mL; Minimum inhibitory concentration (MIC) Trichophyton mentagrophytes ATCC 9533 [10]: >30 µg/mL; Minimum inhibitory concentration (MIC) Klebsiella pneumonia ATCC 4352 [11]: >60 µg/mL; Minimum inhibitory concentration (MIC) S. epidermidis ATCC 12228 [12]: >60 µg/mL; Minimum inhibitory concentration (MIC) Micrococcus luteus ATCC 9341 [13]: >60 µg/mL; Minimum inhibitory concentration (MIC) Pseudomonas aeruginosa CIP A-22 [14]: >60 µg/mL
